Source: patent US8785460B2, “Tricyclic compounds and use thereof” (Takeda Pharmaceutical Company Limited, priority 2008, dated 2014)
pIC50: −log10 of the molar value.

Experiments:
human CRF1 receptor = target: T1, human CRF1 receptor (Homo sapiens, UniProt P34998); experiment: Measurement of CRF Binding Inhibitory Rate (receptor binding experiment with 125I-CRF); details: human CRF1 receptor expressing CHO cellular membrane fraction, 50 pM 125I-CRF, room temperature 1.5 hr, 0.05 nM to 10 μM of compound; read-out: IC50 values (CRF binding inhibition)
T1 construct: expressed in transfected cells; host or cells: CHO cells (membrane fraction)
T1 sequence (P34998 24-415): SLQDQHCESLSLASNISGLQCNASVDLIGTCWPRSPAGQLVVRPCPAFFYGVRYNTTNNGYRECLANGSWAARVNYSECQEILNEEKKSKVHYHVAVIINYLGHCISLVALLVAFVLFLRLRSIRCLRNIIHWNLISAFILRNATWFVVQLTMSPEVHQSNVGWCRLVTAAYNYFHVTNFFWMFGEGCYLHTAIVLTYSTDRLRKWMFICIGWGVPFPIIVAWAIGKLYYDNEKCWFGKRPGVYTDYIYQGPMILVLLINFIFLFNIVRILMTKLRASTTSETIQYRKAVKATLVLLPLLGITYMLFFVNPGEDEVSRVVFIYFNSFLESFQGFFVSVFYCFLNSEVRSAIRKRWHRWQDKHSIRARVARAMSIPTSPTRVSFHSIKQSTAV

Row | Structure (SMILES) | pIC50 (human CRF1 receptor) | melting point [°C]
1 | CCC(CC)c1ccc(Cl)c2nc3n(c12)CCCCN3c1cnc(C(N)=O)cc1C [Example 61, 5-[10-Chloro-7-(1-ethylpropyl)-2,3,4,5-tetrahydro-1H-[1,3]diazepino[1,2-a]benzimidazol-1-yl]-4-methylpyridine-2-carboxamide] | > 6.00 | 267 to 269
2 | CCC(CC)c1ccc(Cl)c2nc3n(c12)CCCCN3c1ncc(Cl)cc1Cl [Example 62, 10-Chloro-1-(3,5-dichloropyridin-2-yl)-7-(1-ethylpropyl)-2,3,4,5-tetrahydro-1H-[1,3]diazepino[1,2-a]benzimidazole] | > 6.00 | 175 to 176
3 | CCC(CC)c1ccc(Cl)c2nc3n(c12)CCCCN3c1ncc(C(F)(F)F)cc1Cl [Example 63, 10-Chloro-1-[3-chloro-5-(trifluoromethyl)pyridin-2-yl]-7-(1-ethylpropyl)-2,3,4,5-tetrahydro-1H-[1,3]diazepino[1,2-a]benzimidazole] | > 6.00 | 108 to 110
4 | CCC(CC)c1ccc(Cl)c2nc3n(c12)CCCCN3c1ncc([N+](=O)[O-])cc1C [Example 64, 10-Chloro-7-(1-ethylpropyl)-1-(3-methyl-5-nitropyridin-2-yl)-2,3,4,5-tetrahydro-1H-[1,3]diazepino[1,2-a]benzimidazole] | > 6.00 | 204 to 205
5 | CCC(CC)c1ccc(Cl)c2nc3n(c12)CCCCN3c1ncc(N(C)C)cc1C [Example 66, 6-[10-Chloro-7-(1-ethylpropyl)-2,3,4,5-tetrahydro-1H-[1,3]diazepino[1,2-a]benzimidazol-1-yl]-N,N,5-trimethylpyridin-3-amine] | > 6.00 | 188 to 190
6 | CCC(O)c1cccc2nc3n(c12)CCCCN3c1ccc(Cl)cc1Cl (stereo not shown) [Example 68, 1-[1-(2,4-Dichlorophenyl)-2,3,4,5-tetrahydro-1H-[1,3]diazepino[1,2-a]benzimidazol-7-yl]propan-1-ol] | > 6.00 | 241 to 243
7 | CCN(CC)c1cccc2nc3n(c12)CC(O)CCN3c1ccc(Cl)cc1Cl (stereo not shown) [Example 70, 1-(2,4-Dichlorophenyl)-7-(diethylamino)-2,3,4,5-tetrahydro-1H-[1,3]diazepino[1,2-a]benzimidazol-4-ol] | > 6.00 | 207 to 208
8 | CCN(CC)c1cccc2nc3n(c12)CC(=O)CCN3c1ccc(Cl)cc1Cl [Example 71, 1-(2,4-Dichlorophenyl)-7-(diethylamino)-2,3-dihydro-1H-[1,3]diazepino[1,2-a]benzimidazol-4(5H)-one] | > 6.00 | 169 to 170
9 | CCN(CC)c1cccc2nc3n(c12)CC(CCO)N3c1ccc(Cl)cc1Cl (stereo not shown) [Example 74, 2-[1-(2,4-Dichlorophenyl)-5-(diethylamino)-2,3-dihydro-1H-imidazo[1,2-a]benzimidazol-2-yl]ethanol] | > 6.00 | 222 to 223
10 | CCN(CC)c1cccc2nc3n(c12)CC(CO)N3c1ccc(Cl)cc1Cl (stereo not shown) [Example 76, [1-(2,4-Dichlorophenyl)-5-(diethylamino)-2,3-dihydro-1H-imidazo[1,2-a]benzimidazol-2-yl]methanol] | > 6.00 | 187 to 190
11 | CCN(CC)c1cccc2nc3n(c12)CC(O)CN3c1ccc(Cl)cc1Cl (stereo not shown) [Example 77, 1-(2,4-Dichlorophenyl)-6-(diethylamino)-1,2,3,4-tetrahydropyrimido[1,2-a]benzimidazol-3-ol] | > 6.00 | 239 to 242
12 | CCC(CC)c1ccc(Cl)c2nc3n(c12)CC(C)N3c1cnc(N(C)C)cc1C (stereo not shown) [Example 78, 5-[8-Chloro-5-(1-ethylpropyl)-2-methyl-2,3-dihydro-1H-imidazo[1,2-a]benzimidazol-1-yl]-N,N,4-trimethylpyridin-2-amine] | > 6.00 | 204 to 206
13 | CCN(CC)c1cccc2nc3n(c12)CCCN3c1cnc(OC)nc1OC [Example 79, 1-(2,4-Dimethoxypyrimidin-5-yl)-N,N-diethyl-1,2,3,4-tetrahydropyrimido[1,2-a]benzimidazol-6-amine] | > 6.00 | 170 to 171
14 | CCN(CC)c1cccc2nc3n(c12)CCCN3c1nnc(Cl)cc1C [Example 80, 1-(6-Chloro-4-methylpyridazin-3-yl)-N,N-diethyl-1,2,3,4-tetrahydropyrimido[1,2-a]benzimidazol-6-amine] | > 6.00 | 193 to 195
15 | CCC(OC)c1cccc2nc3n(c12)CCCN3c1ccc(Cl)cc1Cl (stereo not shown) [Example 93, 1-(2,4-Dichlorophenyl)-6-(1-methoxypropyl)-1,2,3,4-tetrahydropyrimido[1,2-a]benzimidazole] | > 6.00 | 151 to 153
16 | CCN(CC)c1cccc2nc3n(c12)CCCCCN3c1ccc(Cl)cc1Cl [Example 102, 1-(2,4-Dichlorophenyl)-N,N-diethyl-1,2,3,4,5,6-hexahydro[1,3]diazocino[1,2-a]benzimidazol-8-amine] | > 6.00 | 120 to 121
17 | CC(C)(O)c1ccc(Cl)c2nc3n(c12)CCCN3c1ccc(Cl)cc1Cl [Example 106, 2-[9-Chloro-1-(2,4-dichlorophenyl)-1,2,3,4-tetrahydropyrimido[1,2-a]benzimidazol-6-yl]propan-2-ol] | > 6.00 | 216 to 218
18 | CCC(O)(CC)c1ccc(Cl)c2nc3n(c12)CCCN3c1ccc(Cl)cc1Cl [Example 107, 3-[9-Chloro-1-(2,4-dichlorophenyl)-1,2,3,4-tetrahydropyrimido[1,2-a]benzimidazol-6-yl]pentan-3-ol] | > 6.00 | 199 to 201
19 | OC(c1ccc(Cl)c2nc3n(c12)CCCN3c1ccc(Cl)cc1Cl)(C1CC1)C1CC1 [Example 108, [9-Chloro-1-(2,4-dichlorophenyl)-1,2,3,4-tetrahydropyrimido[1,2-a]benzimidazol-6-yl](dicyclopropyl)methanol] | > 6.00 | 184 to 186
20 | COC(C)(C)c1ccc(Cl)c2nc3n(c12)CCCN3c1ccc(Cl)cc1Cl [Example 109, 9-Chloro-1-(2,4-dichlorophenyl)-6-(1-methoxy-1-methylethyl)-1,2,3,4-tetrahydropyrimido[1,2-a]benzimidazole] | > 6.00 | 203 to 204
21 | CCC(CC)(OC)c1ccc(Cl)c2nc3n(c12)CCCN3c1ccc(Cl)cc1Cl [Example 110, 9-Chloro-1-(2,4-dichlorophenyl)-6-(1-ethyl-1-methoxypropyl)-1,2,3,4-tetrahydropyrimido[1,2-a]benzimidazole] | > 6.00 | 124 to 125
22 | COC(c1ccc(Cl)c2nc3n(c12)CCCN3c1ccc(Cl)cc1Cl)(C1CC1)C1CC1 [Example 111, 9-Chloro-1-(2,4-dichlorophenyl)-6-[dicyclopropyl(methoxy)methyl]-1,2,3,4-tetrahydropyrimido[1,2-a]benzimidazole] | > 6.00 | 99 to 100
23 | OC(c1ccc(Cl)c2nc3n(c12)CCCN3c1ccc(Cl)cc1Cl)C1CC1 (stereo not shown) [Example 113, [9-Chloro-1-(2,4-dichlorophenyl)-1,2,3,4-tetrahydropyrimido[1,2-a]benzimidazol-6-yl](cyclopropyl)methanol] | > 6.00 | 223 to 224
24 | CCCC(O)c1ccc(Cl)c2nc3n(c12)CCCN3c1ccc(Cl)cc1Cl (stereo not shown) [Example 114, 1-[9-Chloro-1-(2,4-dichlorophenyl)-1,2,3,4-tetrahydropyrimido[1,2-a]benzimidazol-6-yl]butan-1-ol] | > 6.00 | 220 to 221
25 | CCOC(CC)c1ccc(Cl)c2nc3n(c12)CCCN3c1ccc(Cl)cc1Cl (stereo not shown) [Example 116, 9-Chloro-1-(2,4-dichlorophenyl)-6-(1-ethoxypropyl)-1,2,3,4-tetrahydropyrimido[1,2-a]benzimidazole] | > 6.00 | 108 to 110
26 | COC(c1ccc(Cl)c2nc3n(c12)CCCN3c1ccc(Cl)cc1Cl)C1CC1 (stereo not shown) [Example 117, 9-Chloro-6-[cyclopropyl(methoxy)methyl]-1-(2,4-dichlorophenyl)-1,2,3,4-tetrahydropyrimido[1,2-a]benzimidazole] | > 6.00 | 138 to 139
27 | CCCC(OC)c1ccc(Cl)c2nc3n(c12)CCCN3c1ccc(Cl)cc1Cl (stereo not shown) [Example 118, 9-Chloro-1-(2,4-dichlorophenyl)-6-(1-methoxybutyl)-1,2,3,4-tetrahydropyrimido[1,2-a]benzimidazole] | > 6.00 | 139 to 140
28 | CC/C(=N/OC)c1ccc(Cl)c2nc3n(c12)CCCN3c1ccc(Cl)cc1Cl [Example 122, (1Z)-1-[9-Chloro-1-(2,4-dichlorophenyl)-1,2,3,4-tetrahydropyrimido[1,2-a]benzimidazol-6-yl]propan-1-one O-methyloxime] | > 6.00 | 144 to 145
29 | CCO/N=C(/CC)c1ccc(Cl)c2nc3n(c12)CCCN3c1ccc(Cl)cc1Cl [Example 124, (1Z)-1-[9-Chloro-1-(2,4-dichlorophenyl)-1,2,3,4-tetrahydropyrimido[1,2-a]benzimidazol-6-yl]propan-1-one O-ethyloxime] | > 6.00 | 140 to 141
